Results from patent US11129810B2, “Dosage regimen for the treatment of acute exacerbations of chronic obstructive pulmonary disease” (MEREO BIOPHARMA 1 LIMITED, priority 2016, dated 2021).

Key:
TNF-α = TNF-α levels after single oral doses versus placebo (ex vivo LPS-challenged blood samples); type: in vivo, human
Description: (§1) A number of PK studies have been performed looking at both dosing intervals (Days 1, 3 and 5 (FIGS. 1-4, top panels) versus Days 1, 4 and 7 (FIGS. 1-4 bottom panels)), as well as dose levels (approximately 75/40/40 mg (FIG. 1); approximately 75/20/20 (FIG. 2); approximately 40/40/40 mg (FIG. 3); approximately 40/20/20 mg (FIG. 4), etc.). Based on exposures of the various regimens, there is limited benefit in dosing beyond Day 5 for a typical exacerbation.
Part 1 of study CBCT197A2101 was a randomized, double-blind, placebo-controlled, ascending single-dose study to evaluate safety, tolerability, PK and PD of oral 3-[5-amino-4-(3-cyanobenzoyl)-pyrazol-1-yl]-N-cyclopropyl-4-methylbenzamide in healthy subjects. Part 2 was a 14-day, randomized, double-blind, placebo-controlled, ascending multiple dose study evaluating the PK and PD of oral 3-[5-amino-4-(3-cyanobenzoyl)-pyrazol-1-yl]-N-cyclopropyl-4-methylbenzamide. PD effect of 3-[5-amino-4-(3-cyanobenzoyl)-pyrazol-1-yl]-N-cyclopropyl-4-methylbenzamide in Parts 1 and 2 was assessed by measuring TNFa levels in ex vivo LPS-challenged blood samples. […] Part 3 of the study determined the effect of a single oral administration of 3-[5-amino-4-(3-cyanobenzoyl)-pyrazol-1-yl]-N-cyclopropyl-4-methylbenzamide on serum TNFa levels after in vivo intravenous LPS challenge.

[1] = Plasma protein binding (free fraction) in human plasma samples; type: in vitro ADME
[2] = single oral dose; WO 2013/139809; cited from earlier work
[3] = Highest safe dose based on toxicology margins
Description: However, in order to initiate suppression of the inflammatory response the Day 1 dose in both regimes is higher than the doses on Days 3 and 5. The ‘high’ dosing regimen (regimen 1) is initiated at 75 mg which is the highest dose which can be safely administered based on toxicology margins whereas the ‘low’ dose regimen is initiated at a 40 mg dose which approximates to the mid-point in the TNF-α response curve.

[4] = Human plasma PK of the Day 1, 3 and 5 dosing regimen; type: in vivo
Excerpt: This study investigated the efficacy, safety and tolerability of two different dosing regimens of 3-[5-amino-4-(3-cyanobenzoyl)-pyrazol-1-yl]-N-cyclopropyl-4-methylbenzamide added to SoC (systemic corticosteroids and/or antibiotics) versus placebo added to SoC in subjects with severe acute exacerbations of COPD. The proposed doses take into account trough levels based on PK modelling to ensure that the drug rapidly achieves and remains at effective concentrations between doses.
as §1
Dosing at Day 1, 3 and 5, maintains drug levels above 220 ng/mL out to approximately 140 to 150 hours. This achieves a plasma concentration of 5.7 μM.
The concentration based on free fraction is at or above 740 nM for the duration of the dosing interval. Cmax is approximately 2 μM based on the first dose. […] Assuming a PK variability of 50%, drug levels are 3 to 5 times above the K and so would produce high levels of inhibition, potentially in the range of 90 to 99%.

fraction unbound [1]: 0.13 to 0.25 | plasma concentration ([4]; dosing at Day 1, 3 and 5): 5.7 µM | drug levels maintained ([4]; dosing at Day 1, 3 and 5, out to approximately 140 to 150 hours): above 220 ng/mL | concentration based on free fraction ([4]; for the duration of the dosing interval): ≥ 0.74 µM | Cmax ([4]; human, plasma, oral, based on the first dose): ~2 µM
Structure (SMILES): Cc1ccc(C(=O)NC2CC2)cc1-n1ncc(C(=O)c2cccc(C#N)c2)c1N [3-[5-amino-4-(3-cyanobenzoyl)-pyrazol-1-yl]-N-cyclopropyl-4-methylbenzamide]
reduction in TNF-α levels (TNF-α; doses ranging from 0.1 to 75 mg): dose-dependent reduction | dose approximating the mid-point in the TNF-α response curve (TNF-α; in vivo): ~40 mg | effect on recovery of AECOPD to the stable disease state [2]: accelerates the recovery to the stable disease state | highest dose which can be safely administered based on toxicology margins [3]: 75 mg | enzyme inhibition ([4]; occurs for 6 days, from drug levels versus Ki and IC50): > 99%
